# Source: patent US7074789B2, “Kinase inhibitors” (Amgen Inc., priority 1999, dated 2006)
# Legend:
# Format in all cases: biochemical
# [1] = target: T1, Lck (Homo sapiens, UniProt P06239); assay: Kinase inhibition assay (33P transfer), Lck; details: Table 3; read-out: Lck-1
# T1 construct: Kinases are expressed as either kinase domains or full length constructs; made in house
# In short: (§1)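 Steps: express kinase as GST or polyHistidine fusion in E. coli or High Five cells; optionally co-express or mix with regulatory polypeptides; incubate with 33P-ATP and plate-attached poly(Glu,Tyr) 4:1 or poly(Arg,Ser) 3:1; wash with 0.5% phosphoric acid; count by liquid scintillation.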
# [2] = target: T2, Lyn (Homo sapiens, UniProt P07948); assay: Kinase inhibition assay (33P transfer), Lyn; details: Table 6, Lyn-1 kinase inhibition class
# T2 construct: Kinases are expressed as either kinase domains or full length constructs; made in house
# T2 sequence (P07948 whole entry, species assumed, the tested form may be a part): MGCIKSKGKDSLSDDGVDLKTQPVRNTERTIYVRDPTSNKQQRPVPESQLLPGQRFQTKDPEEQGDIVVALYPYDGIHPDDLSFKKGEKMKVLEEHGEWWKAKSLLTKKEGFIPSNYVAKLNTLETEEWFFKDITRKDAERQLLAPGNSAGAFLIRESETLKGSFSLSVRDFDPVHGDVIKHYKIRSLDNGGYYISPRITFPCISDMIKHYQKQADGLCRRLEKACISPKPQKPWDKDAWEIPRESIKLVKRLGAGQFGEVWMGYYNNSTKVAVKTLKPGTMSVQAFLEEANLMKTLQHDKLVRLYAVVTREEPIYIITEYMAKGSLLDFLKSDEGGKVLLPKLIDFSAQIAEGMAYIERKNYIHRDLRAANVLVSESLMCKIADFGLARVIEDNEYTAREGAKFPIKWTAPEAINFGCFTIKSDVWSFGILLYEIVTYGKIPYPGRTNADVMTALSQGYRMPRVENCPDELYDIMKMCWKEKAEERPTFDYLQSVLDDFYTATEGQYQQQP
# In short: (§2)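 Steps: coat wells with poly(Glu,Tyr) 4:1 or poly(Arg,Ser) 3:1; add purified kinase, [33P]ATP and inhibitor; incubate; wash with 0.5% phosphoric acid; add liquid scintillant; count. IC50 corresponds to half-maximal reduction of bound 33P.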
# [3] = target: T3, Fyn (Homo sapiens, UniProt P06241); assay: Kinase inhibition assay (33P transfer), Fyn; details: read-out: Fyn-1
# T3 construct: Kinases are expressed as either kinase domains or full length constructs; made in house
# In short: as §2
# [4] = target: T4, Zap-70 (Homo sapiens, UniProt P43403); assay: Kinase inhibition assay (33P transfer), Zap-70; details: Table 3; read-out: Zap-1
# T4 construct: Kinases are expressed as either kinase domains or full length constructs; made in house
# T4 sequence (P43403 1-619): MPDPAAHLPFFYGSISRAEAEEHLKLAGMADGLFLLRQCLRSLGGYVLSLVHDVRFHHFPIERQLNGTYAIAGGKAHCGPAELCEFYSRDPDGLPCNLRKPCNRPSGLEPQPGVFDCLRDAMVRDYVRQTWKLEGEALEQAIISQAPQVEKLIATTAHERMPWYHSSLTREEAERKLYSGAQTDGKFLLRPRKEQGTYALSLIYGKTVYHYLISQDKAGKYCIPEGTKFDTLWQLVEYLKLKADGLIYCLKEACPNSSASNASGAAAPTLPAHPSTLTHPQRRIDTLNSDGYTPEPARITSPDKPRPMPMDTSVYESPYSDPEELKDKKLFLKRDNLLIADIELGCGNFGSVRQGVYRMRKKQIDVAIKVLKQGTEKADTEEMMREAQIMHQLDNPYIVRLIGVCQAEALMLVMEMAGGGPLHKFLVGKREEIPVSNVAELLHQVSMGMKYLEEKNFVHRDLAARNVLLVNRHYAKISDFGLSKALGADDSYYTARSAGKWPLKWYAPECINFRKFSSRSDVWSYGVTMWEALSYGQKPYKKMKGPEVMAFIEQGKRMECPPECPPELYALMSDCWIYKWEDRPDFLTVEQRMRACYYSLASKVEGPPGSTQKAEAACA
# In short: as §1
# [5] = target: T5, Itk (Homo sapiens, UniProt Q08881); assay: Kinase inhibition assay (33P transfer), Itk; details: Table 3; read-out: Itk-1
# T5 construct: Kinases are expressed as either kinase domains or full length constructs; made in house
# T5 sequence (Q08881 1-620): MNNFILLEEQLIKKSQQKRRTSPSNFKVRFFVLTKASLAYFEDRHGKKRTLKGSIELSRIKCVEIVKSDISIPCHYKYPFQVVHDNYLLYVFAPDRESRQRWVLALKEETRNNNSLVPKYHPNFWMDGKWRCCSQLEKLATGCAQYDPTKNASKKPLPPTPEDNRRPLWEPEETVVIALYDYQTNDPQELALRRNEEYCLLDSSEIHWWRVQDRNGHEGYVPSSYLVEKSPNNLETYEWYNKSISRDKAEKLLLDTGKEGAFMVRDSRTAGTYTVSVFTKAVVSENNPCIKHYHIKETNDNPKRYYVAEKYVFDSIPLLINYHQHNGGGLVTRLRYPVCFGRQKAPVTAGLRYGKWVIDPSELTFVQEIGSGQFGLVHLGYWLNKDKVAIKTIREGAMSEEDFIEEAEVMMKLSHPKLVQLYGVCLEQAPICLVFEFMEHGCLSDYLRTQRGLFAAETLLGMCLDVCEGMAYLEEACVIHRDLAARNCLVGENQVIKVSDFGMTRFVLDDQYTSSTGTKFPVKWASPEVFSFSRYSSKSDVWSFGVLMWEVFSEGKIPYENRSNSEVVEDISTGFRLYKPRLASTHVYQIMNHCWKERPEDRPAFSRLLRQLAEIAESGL
# In short: as §2
# [6] = target: T6, Kdr (Homo sapiens, UniProt P35968); assay: Kinase inhibition assay (33P transfer), Kdr; details: Table 3; read-out: KDR-1
# T6 construct: Kinases are expressed as either kinase domains or full length constructs; made in house
# T6 sequence (P35968 20-1356, species assumed): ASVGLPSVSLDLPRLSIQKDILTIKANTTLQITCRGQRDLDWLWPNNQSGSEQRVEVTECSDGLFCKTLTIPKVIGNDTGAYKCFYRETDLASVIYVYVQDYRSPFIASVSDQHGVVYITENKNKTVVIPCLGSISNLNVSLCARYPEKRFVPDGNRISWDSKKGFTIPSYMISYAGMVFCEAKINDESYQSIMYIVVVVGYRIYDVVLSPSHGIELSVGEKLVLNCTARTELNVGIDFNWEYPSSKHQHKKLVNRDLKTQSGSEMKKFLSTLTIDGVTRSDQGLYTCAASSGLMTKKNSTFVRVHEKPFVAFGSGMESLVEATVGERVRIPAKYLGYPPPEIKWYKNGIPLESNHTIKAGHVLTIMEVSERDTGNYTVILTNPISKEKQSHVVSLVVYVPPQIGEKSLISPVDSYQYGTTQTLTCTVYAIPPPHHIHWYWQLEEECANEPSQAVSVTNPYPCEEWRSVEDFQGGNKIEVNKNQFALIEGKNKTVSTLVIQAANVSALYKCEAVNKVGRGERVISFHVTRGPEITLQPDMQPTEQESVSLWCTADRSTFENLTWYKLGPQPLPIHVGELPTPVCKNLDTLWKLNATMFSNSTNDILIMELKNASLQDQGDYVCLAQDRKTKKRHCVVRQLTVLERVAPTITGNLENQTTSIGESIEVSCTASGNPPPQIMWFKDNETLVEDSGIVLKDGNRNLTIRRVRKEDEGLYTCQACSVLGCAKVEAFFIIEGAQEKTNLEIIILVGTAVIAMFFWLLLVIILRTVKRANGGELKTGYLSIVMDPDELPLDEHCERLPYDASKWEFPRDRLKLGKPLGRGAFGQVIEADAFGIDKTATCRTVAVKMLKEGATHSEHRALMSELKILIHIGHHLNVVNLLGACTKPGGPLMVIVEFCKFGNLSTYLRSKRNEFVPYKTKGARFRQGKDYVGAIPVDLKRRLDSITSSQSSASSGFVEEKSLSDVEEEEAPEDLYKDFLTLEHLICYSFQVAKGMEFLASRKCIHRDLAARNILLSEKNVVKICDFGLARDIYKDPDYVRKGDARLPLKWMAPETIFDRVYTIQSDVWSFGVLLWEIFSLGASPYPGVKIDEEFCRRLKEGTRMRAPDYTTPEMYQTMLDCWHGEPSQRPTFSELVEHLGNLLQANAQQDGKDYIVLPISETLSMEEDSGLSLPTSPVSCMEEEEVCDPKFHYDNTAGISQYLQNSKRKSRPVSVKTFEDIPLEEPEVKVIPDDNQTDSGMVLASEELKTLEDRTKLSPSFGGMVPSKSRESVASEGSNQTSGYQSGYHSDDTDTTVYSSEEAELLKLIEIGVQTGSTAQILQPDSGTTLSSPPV
# In short: as §1
# [7] = target: T7, Flt-1 (Homo sapiens, UniProt P17948); assay: Kinase inhibition assay (33P transfer), Flt-1
# T7 construct: Kinases are expressed as either kinase domains or full length constructs; made in house
# In short: as §2
# [8] = target: T8, c-Met (Homo sapiens, UniProt P08581); assay: Kinase inhibition assay (33P transfer), c-Met; details: Table 2, kinase inhibition class; read-out: Met-1
# T8 construct: Kinases are expressed as either kinase domains or full length constructs; made in house
# T8 sequence (P08581 25-1390): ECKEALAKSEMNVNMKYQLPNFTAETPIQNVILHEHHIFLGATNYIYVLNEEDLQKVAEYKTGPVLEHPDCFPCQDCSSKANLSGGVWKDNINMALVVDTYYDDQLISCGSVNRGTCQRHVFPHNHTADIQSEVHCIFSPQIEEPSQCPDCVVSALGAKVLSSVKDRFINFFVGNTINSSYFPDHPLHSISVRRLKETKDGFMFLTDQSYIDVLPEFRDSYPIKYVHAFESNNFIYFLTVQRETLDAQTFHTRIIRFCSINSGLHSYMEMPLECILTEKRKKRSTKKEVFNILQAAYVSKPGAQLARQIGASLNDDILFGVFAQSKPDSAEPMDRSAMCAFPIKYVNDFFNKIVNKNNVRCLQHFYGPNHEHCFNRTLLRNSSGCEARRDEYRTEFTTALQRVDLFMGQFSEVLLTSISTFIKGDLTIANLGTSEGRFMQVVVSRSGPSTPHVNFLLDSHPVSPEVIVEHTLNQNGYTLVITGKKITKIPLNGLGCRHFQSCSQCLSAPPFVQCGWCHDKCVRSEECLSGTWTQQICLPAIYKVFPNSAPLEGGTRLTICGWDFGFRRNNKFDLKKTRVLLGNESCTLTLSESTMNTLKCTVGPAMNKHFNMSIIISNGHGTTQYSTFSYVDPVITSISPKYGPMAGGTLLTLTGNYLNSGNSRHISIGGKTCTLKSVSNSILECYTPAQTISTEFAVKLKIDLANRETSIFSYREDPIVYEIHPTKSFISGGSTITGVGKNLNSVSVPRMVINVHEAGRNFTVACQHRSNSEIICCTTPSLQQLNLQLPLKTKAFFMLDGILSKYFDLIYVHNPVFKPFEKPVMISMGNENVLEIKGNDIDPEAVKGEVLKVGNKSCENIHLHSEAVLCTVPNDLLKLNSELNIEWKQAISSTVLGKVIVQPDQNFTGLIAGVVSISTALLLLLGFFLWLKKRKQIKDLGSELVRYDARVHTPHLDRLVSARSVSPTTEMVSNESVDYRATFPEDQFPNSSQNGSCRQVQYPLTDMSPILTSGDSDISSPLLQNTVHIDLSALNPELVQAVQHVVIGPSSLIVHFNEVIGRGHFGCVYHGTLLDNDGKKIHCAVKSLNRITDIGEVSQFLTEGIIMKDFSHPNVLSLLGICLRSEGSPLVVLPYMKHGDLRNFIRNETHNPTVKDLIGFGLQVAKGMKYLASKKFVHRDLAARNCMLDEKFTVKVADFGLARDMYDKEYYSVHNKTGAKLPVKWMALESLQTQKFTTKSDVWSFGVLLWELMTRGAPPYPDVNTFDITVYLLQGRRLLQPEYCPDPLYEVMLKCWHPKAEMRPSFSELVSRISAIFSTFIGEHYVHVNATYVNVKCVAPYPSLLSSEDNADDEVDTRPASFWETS
# In short: as §2
# [9] = target: T9, AKT (Homo sapiens, UniProt Q9Y243); assay: Kinase inhibition assay (33P transfer), AKT; details: Table 2, kinase inhibition class; read-out: AKT3-1
# T9 construct: Kinases are expressed as either kinase domains or full length constructs; made in house
# In short: as §1
# [10] = target: T10, IGFR-1 (Homo sapiens, UniProt P08069); assay: Kinase inhibition assay (33P transfer), IGFR-1; details: Table 2, kinase inhibition class
# T10 construct: Kinases are expressed as either kinase domains or full length constructs; made in house
# T10 sequence (P08069 31-1367): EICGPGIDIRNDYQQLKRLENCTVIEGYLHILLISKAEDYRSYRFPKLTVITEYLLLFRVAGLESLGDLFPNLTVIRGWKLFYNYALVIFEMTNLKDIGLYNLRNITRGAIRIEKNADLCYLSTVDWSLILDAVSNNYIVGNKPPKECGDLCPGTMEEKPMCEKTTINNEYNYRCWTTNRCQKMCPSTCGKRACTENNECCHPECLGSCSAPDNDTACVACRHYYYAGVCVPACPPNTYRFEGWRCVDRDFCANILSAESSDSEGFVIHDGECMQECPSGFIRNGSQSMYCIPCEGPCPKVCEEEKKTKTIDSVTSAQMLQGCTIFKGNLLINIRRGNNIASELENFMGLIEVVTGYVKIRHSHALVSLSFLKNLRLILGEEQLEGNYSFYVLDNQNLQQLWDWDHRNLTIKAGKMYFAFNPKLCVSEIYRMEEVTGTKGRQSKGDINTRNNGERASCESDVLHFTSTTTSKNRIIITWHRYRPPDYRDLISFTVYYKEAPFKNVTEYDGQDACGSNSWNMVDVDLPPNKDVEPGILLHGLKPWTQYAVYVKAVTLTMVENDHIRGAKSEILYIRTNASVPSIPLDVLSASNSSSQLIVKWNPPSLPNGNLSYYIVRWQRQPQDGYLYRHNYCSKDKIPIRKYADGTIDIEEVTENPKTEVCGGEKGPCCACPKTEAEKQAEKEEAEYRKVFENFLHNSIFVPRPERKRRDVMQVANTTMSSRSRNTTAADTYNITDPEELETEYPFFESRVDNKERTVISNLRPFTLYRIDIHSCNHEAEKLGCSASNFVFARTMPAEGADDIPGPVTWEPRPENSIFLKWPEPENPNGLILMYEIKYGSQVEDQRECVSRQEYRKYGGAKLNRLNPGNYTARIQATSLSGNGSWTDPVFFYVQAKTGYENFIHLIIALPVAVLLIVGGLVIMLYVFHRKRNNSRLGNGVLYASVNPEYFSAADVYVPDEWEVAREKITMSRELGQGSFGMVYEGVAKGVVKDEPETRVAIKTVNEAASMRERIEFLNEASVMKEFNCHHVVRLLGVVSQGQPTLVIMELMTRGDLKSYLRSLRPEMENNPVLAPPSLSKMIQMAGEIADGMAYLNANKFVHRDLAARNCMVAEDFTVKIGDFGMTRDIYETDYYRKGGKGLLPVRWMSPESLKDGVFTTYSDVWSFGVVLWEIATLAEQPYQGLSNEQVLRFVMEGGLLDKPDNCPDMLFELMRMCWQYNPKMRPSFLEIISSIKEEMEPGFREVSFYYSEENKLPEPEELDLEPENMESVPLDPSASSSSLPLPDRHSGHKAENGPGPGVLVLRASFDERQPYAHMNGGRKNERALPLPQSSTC
# [11] = target: T11, PDGFRB (Homo sapiens, UniProt P09619); assay: Kinase inhibition assay (33P transfer), PDGFRB; details: read-out: PDGFRB-1
# T11 construct: Kinases are expressed as either kinase domains or full length constructs; made in house
# [12] = target: T12, Hck-1 (Homo sapiens, UniProt P08631); assay: Kinase inhibition assay (33P transfer), Hck; details: Table 6, Hck-1 kinase inhibition class
# T12 construct: Kinases are expressed as either kinase domains or full length constructs; made in house
# [13] = target: T13, ErbB4 (Homo sapiens, UniProt Q15303); assay: Kinase inhibition assay (33P transfer), ErbB4; details: read-out: ErbB4-1
# T13 construct: Kinases are expressed as either kinase domains or full length constructs; made in house
# [14] = target: T14, FGFR1 (Homo sapiens, UniProt P11362); assay: Kinase inhibition assay (33P transfer), FGFR1; details: read-out: FGFR1-1
# T14 construct: Kinases are expressed as either kinase domains or full length constructs; made in house
# T1 sequence (P06239 whole entry, species assumed, the tested form may be a part): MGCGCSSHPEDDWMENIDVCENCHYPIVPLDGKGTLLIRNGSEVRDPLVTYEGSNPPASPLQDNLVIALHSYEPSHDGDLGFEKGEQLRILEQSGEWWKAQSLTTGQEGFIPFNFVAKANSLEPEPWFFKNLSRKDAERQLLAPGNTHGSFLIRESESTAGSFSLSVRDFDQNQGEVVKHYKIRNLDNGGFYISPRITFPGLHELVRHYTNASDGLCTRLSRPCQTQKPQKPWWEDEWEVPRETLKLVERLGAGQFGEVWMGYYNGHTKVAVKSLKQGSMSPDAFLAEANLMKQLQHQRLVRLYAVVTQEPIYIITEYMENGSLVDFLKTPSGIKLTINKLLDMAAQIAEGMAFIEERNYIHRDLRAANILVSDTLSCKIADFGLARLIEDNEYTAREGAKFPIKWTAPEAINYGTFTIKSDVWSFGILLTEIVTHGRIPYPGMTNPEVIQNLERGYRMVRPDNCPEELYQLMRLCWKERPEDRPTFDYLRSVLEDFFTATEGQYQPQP
SMILES,IC50 [1] [µM],IC50 [2] [µM],IC50 [3] [µM],IC50 [4] [µM],IC50 [5] [µM],IC50 [6] [µM],IC50 [7] [µM],IC50 [8] [µM],IC50 [9] [µM],IC50 [10] [µM],IC50 [11] [µM],IC50 [12] [µM],IC50 [13] [µM],IC50 [14] [µM]
COCCOc1ccc(Nc2ncnc(Nc3ccc4[nH]ccc4c3)n2)cc1OCCOC [Compound 321],7.77 to 9.99,< 0.888,> 9.99,> 9.99,> 9.99,< 0.888,> 9.99,> 9.99,> 9.99,5.33 to 7.77,0.888 to 5.33,> 9.99,> 9.99,> 9.99
COCCOc1cc(Nc2ncnc(Nc3ccc(C)c(O)c3)n2)ccc1OC [Compound 127],1.01 to 6.04,< 1.01,< 1.01,> 11.3,> 11.3,< 1.01,< 1.01,> 11.3,> 11.3,1.01 to 6.04,< 1.01,1.01 to 6.04,1.01 to 6.04,1.01 to 6.04
CCOc1ccc(Nc2ncnc(Nc3ccc(C)c(O)c3)n2)cc1OCC [Compound 121],1.05 to 6.29,< 1.05,< 1.05,> 11.8,9.18 to 11.8,< 1.05,< 1.05,9.18 to 11.8,> 11.8,> 11.8,< 1.05,> 11.8,1.05 to 6.29,1.05 to 6.29
COc1ccc(Nc2ncnc(N(CC(=O)O)c3ccc4c(c3)OCO4)n2)cc1OC [Compound 320],5.64 to 8.23,> 10.6,> 10.6,8.23 to 10.6,> 10.6,5.64 to 8.23,> 10.6,5.64 to 8.23,> 10.6,> 10.6,> 10.6,> 10.6,> 10.6,> 10.6
c1coc(-c2cc(Nc3ncnc(Nc4ccc(N5CCOCC5)cc4)n3)[nH]n2)c1 [Compound 340],0.989 to 5.93,0.989 to 5.93,0.989 to 5.93,> 11.1,> 11.1,< 0.989,< 0.989,< 0.989,5.93 to 8.65,< 0.989,8.65 to 11.1,> 11.1,0.989 to 5.93,0.989 to 5.93
COc1cc(Nc2ncnc(-n3c(Nc4ccccc4)nc4ccccc43)n2)cc(OC)c1OC [Compound 336],0.852 to 5.11,0.852 to 5.11,> 9.58,> 9.58,> 9.58,–,< 0.852,> 9.58,> 9.58,> 9.58,< 0.852,> 9.58,> 9.58,< 0.852

# Next, values leading:
IC50 [1] [µM],IC50 [2] [µM],IC50 [3] [µM],IC50 [4] [µM],IC50 [5] [µM],IC50 [6] [µM],IC50 [7] [µM],IC50 [8] [µM],IC50 [9] [µM],IC50 [10] [µM],IC50 [11] [µM],IC50 [12] [µM],IC50 [13] [µM],IC50 [14] [µM],SMILES
> 9.14,> 9.14,> 9.14,> 9.14,> 9.14,< 0.812,> 9.14,> 9.14,> 9.14,> 9.14,< 0.812,> 9.14,> 9.14,> 9.14,COc1ccc2c(c1)c(CCNC(C)=O)cn2-c1ncnc(Nc2cc(OC)c(OC)c(OC)c2)n1 [Compound 339]
0.857 to 5.14,< 0.857,< 0.857,> 9.64,5.14 to 7.5,0.857 to 5.14,0.857 to 5.14,> 9.64,> 9.64,< 0.857,< 0.857,5.14 to 7.5,0.857 to 5.14,0.857 to 5.14,COc1cc(Nc2ncnc(Nc3ccc(Br)c(Cl)c3)n2)cc(OC)c1OC [Compound 936]
> 11.4,8.87 to 11.4,6.09 to 8.87,> 11.4,> 11.4,< 1.01,< 1.01,> 11.4,> 11.4,> 11.4,< 1.01,> 11.4,1.01 to 6.09,> 11.4,COc1cc(Nc2ncnc(-n3c(=O)[nH]c4ccccc43)n2)cc(OC)c1OC [Compound 325]
> 11,> 11,> 11,> 11,> 11,< 0.982,0.982 to 5.89,> 11,> 11,5.89 to 8.59,0.982 to 5.89,> 11,5.89 to 8.59,0.982 to 5.89,COc1cc(Nc2ncnc(Nc3nc4ccccc4n3C)n2)cc(OC)c1OC [Compound 938]
0.94 to 5.64,< 0.94,< 0.94,> 10.6,5.64 to 8.23,< 0.94,< 0.94,< 0.94,8.23 to 10.6,< 0.94,< 0.94,0.94 to 5.64,< 0.94,0.94 to 5.64,COc1cc(Nc2ncnc(Nc3cc(-c4cccs4)n[nH]3)n2)cc(OC)c1OC [Compound 318]
0.852 to 5.11,0.852 to 5.11,> 9.58,> 9.58,> 9.58,< 0.852,0.852 to 5.11,> 9.58,> 9.58,> 9.58,7.45 to 9.58,> 9.58,> 9.58,7.45 to 9.58,COc1cc(Nc2ncnc(N(c3ccccc3)c3nc4ccccc4[nH]3)n2)cc(OC)c1OC [Compound 335]
1 to 6.01,< 1,1 to 6.01,> 11.3,6.01 to 8.76,1 to 6.01,6.01 to 8.76,< 1,> 11.3,< 1,1 to 6.01,6.01 to 8.76,< 1,1 to 6.01,COc1cc(Nc2ncnc(Nc3cc(C(C)(C)C)[nH]n3)n2)cc(OC)c1OC [Compound 313]
7.24 to 9.31,> 9.31,> 9.31,> 9.31,> 9.31,4.96 to 7.24,> 9.31,7.24 to 9.31,> 9.31,> 9.31,0.827 to 4.96,> 9.31,4.96 to 7.24,7.24 to 9.31,COc1cc(Nc2ncnc(-n3ccc4cc(OCc5ccccc5)ccc43)n2)cc(OC)c1OC [Compound 200]
